Laboratory results from patent publication US20250019385A1, “SPIROCYCLIC ANNULATED 2-AMINO-3-CYANO THIOPHENES AND DERIVATIVES FOR THE TREATMENT OF CANCER” (Boehringer Ingelheim International GmbH, priority 2023, published 2025).
pIC50: −log10 of the molar value.

Tested on: MKN1 cells
Assay: MKN1 CTG proliferation assay (120 h) (gastric cancer, wt amplified)
Assay type: cell-based
Conditions: Homo sapiens, MKN-1
Description: (§1) MKN1 cells (JCRB0252) are dispensed into black 384-well plates, flat and clear bottom (Greiner, PNr. 781091) at a density of 200 cells per well in 60 μl RPMI-1640 ATCC-Formulation (Gibco #A10491)+10% FCS (fetal calf serum, HyClone, SH30084.03). Cells are incubated overnight at 37° C. in a humidified tissue culture incubator at 5% CO2. Compounds (10 mM stock in DMSO) are added at logarithmic dose series using the ECHO acoustic liquid handler system (Beckman Coulter), normalizing for added DMSO and including DMSO controls. All compound treatments are performed in technical duplicates. For the TO time point measurement, untreated cells are analyzed at the time of compound addition. Plates are incubated for 120 h, and cell viability is measured using CellTiter-Glo luminescent cell viability reagent (Promega product code G7570). Viability (stated as percent of control) is defined as relative luminescence units RLU of each well divided by the RLU of cells in DMSO controls. IC50 values are determined from viability measurements by non-linear regression using a four-parameter model.
(§2) IC50 values of representative compounds according to the invention measured with these assays in the indicated cell lines are presented in Table 46.

SMILES | pIC50
C[C@H](Oc1nc(-c2noc3c2CCC[C@@]32CCCc3sc(N)c(C#N)c32)nc2c1cnn2[C@@H]1CCOC1)[C@@H]1CCCN1C [II-4] | 7.20
COCCn1c(=O)n(C)c2c(O[C@@H](C)[C@@H]3CCCN3C)nc(-c3onc4c3CCC[C@@]43CCCc4sc(N)c(C#N)c43)nc21 [I-7] | 6.43
C[C@H](Oc1nc(-c2noc3c2CCC[C@@]32CCCc3sc(N)c(C#N)c32)nc2c1COC[C@@]21CCOC1)[C@@H]1CCCN1C [II-9a] | 6.68
CO[C@H]1C[C@@H](n2c(=O)n(C)c3c(O[C@@H](C)[C@@H]4CCCN4C)nc(-c4onc5c4CCC[C@@]54CCCc5sc(N)c(C#N)c54)nc32)C1 [I-31] | 6.01
CO[C@@H]1C[C@@H]([C@H](C)Oc2nc(-c3noc4c3CCC[C@@]43CCCc4sc(N)c(C#N)c43)nc3c2COC[C@]32CCOC2)N(C)C1 [II-11] | 8.22
C[C@H](Oc1nc(-c2onc3c2CCC[C@@]32CCCc3sc(N)c(C#N)c32)nc2c1n(C)c(=O)n2C12COC(C1)C2)[C@@H]1CCCN1C [I-15] | 7.33
C[C@H](Oc1nc(-c2noc3c2CCC[C@@]32CCCc3sc(N)c(C#N)c32)nc2c1CCO[C@]21CCOC1)[C@@H]1CCCN1C [II-9b] | 7.72
CCn1c(=O)n([C@@H]2CCCOC2)c2nc(-c3onc4c3CCC[C@@]43CCCc4sc(N)c(C#N)c43)nc(O[C@@H](C)[C@@H]3CCCN3C)c21 [I-30] | 7.41

Tested on: AsPC-1 cells
Assay: AsPC-1 CTG proliferation assay (120 h) (pancreatic cancer, G12D)
Assay type: cell-based
Conditions: Homo sapiens, ASPC1
Description: as §1, with “AsPC-1” for “MKN1”, “(ATCC CRL-1682)” for “(JCRB0252)”, “500” for “200”, “RPMI” for “RPMI-1640”, “(PAN P04-18047)+10%” for “(Gibco #A10491)+10%”
as §2

SMILES | pIC50
C[C@H](Oc1nc(-c2noc3c2CCC[C@@]32CCCc3sc(N)c(C#N)c32)nc2c1cnn2[C@@H]1CCOC1)[C@@H]1CCCN1C [II-4] | 6.52
COCCn1c(=O)n(C)c2c(O[C@@H](C)[C@@H]3CCCN3C)nc(-c3onc4c3CCC[C@@]43CCCc4sc(N)c(C#N)c43)nc21 [I-7] | 5.32
C[C@H](Oc1nc(-c2noc3c2CCC[C@@]32CCCc3sc(N)c(C#N)c32)nc2c1COC[C@@]21CCOC1)[C@@H]1CCCN1C [II-9a] | 5.97
CO[C@H]1C[C@@H](n2c(=O)n(C)c3c(O[C@@H](C)[C@@H]4CCCN4C)nc(-c4onc5c4CCC[C@@]54CCCc5sc(N)c(C#N)c54)nc32)C1 [I-31] | 5.97
CO[C@@H]1C[C@@H]([C@H](C)Oc2nc(-c3noc4c3CCC[C@@]43CCCc4sc(N)c(C#N)c43)nc3c2COC[C@]32CCOC2)N(C)C1 [II-11] | 7.09
C[C@H](Oc1nc(-c2onc3c2CCC[C@@]32CCCc3sc(N)c(C#N)c32)nc2c1n(C)c(=O)n2C12COC(C1)C2)[C@@H]1CCCN1C [I-15] | 5.79
C[C@H](Oc1nc(-c2noc3c2CCC[C@@]32CCCc3sc(N)c(C#N)c32)nc2c1CCO[C@]21CCOC1)[C@@H]1CCCN1C [II-9b] | 6.38
CCn1c(=O)n([C@@H]2CCCOC2)c2nc(-c3onc4c3CCC[C@@]43CCCc4sc(N)c(C#N)c43)nc(O[C@@H](C)[C@@H]3CCCN3C)c21 [I-30] | 6.01

Tested on: Ba/F3 cells KRAS G12C
Assay: Ba/F3 proliferation assay (KRAS G12C)
Assay type: cell-based
Conditions: Mus musculus, BaF3, 72 h, AlamarBlue viability
Description: (§3) Ba/F3 cells are ordered from DSMZ (ACC300, Lot17) and grown in RPMI-1640 (ATCC 30-2001)+10% FCS+10 ng/mL IL-3 at 37° C. in 5% […] atmosphere. Plasmids containing KRASG12 mutants (i.e. […], G12C, G12V) are obtained from GeneScript. To generate KRASG12-dependent Ba/F3 models, Ba/F3 cells are transduced with retroviruses containing vectors that harbor KRASG12 isoforms. Platinum-E cells (Cell Biolabs) are used for retrovirus packaging. Retrovirus is added to Ba/F3 cells. To ensure infection, 4 μg/mL polybrene is added and cells are spinfected. Infection efficiency is confirmed by measuring GFP-positive cells using a cell analyzer. Cells with an infection efficiency of 10% to 20% are further cultivated and puromycin selection with 1 μg/mL is initiated. As a control, parental Ba/F3 cells are used to show selection status. Selection is considered successful when parental Ba/F3 cells cultures died. To evaluate the transforming potential of KRASG12 mutations, the growth medium is no longer supplemented with IL-3. Ba/F3 cells harboring the empty vector are used as a control. Approximately ten days before conducting the experiments, puromycin is left out.
(§4) For proliferation assays, Ba/F3 cells are seeded into 384-well plates at 1.5×1 (M cells/60 μL in growth media (RPMI-1640+10% FCS). Compounds (10 mM stock in DMSO) are added at logarithmic dose series using the ECHO acoustic liquid handler system (Beckman Coulter), normalizing for added DMSO and including DMSO controls. All compound treatments are performed in technical duplicates. For the TO time point measurement, untreated cells are analyzed at the time of compound addition. Treated cells are incubated for 72 h at 37° C. with 5% CO2 and cell viability is measured in the PerkinElmer Envision Multimode Reader using AlamarBlue™ (ThermoFisher) viability stain. Viability (stated as percent of control) is defined as relative fluorescence units RFU of each well divided by the RFU of cells in DMSO controls. IC50 values are determined from viability measurements by non-linear regression using a four-parameter model.

SMILES | pIC50
C[C@H](Oc1nc(-c2noc3c2CCC[C@@]32CCCc3sc(N)c(C#N)c32)nc2c1cnn2[C@@H]1CCOC1)[C@@H]1CCCN1C [II-4] | 7.92
COCCn1c(=O)n(C)c2c(O[C@@H](C)[C@@H]3CCCN3C)nc(-c3onc4c3CCC[C@@]43CCCc4sc(N)c(C#N)c43)nc21 [I-7] | 7.00
C[C@H](Oc1nc(-c2noc3c2CCC[C@@]32CCCc3sc(N)c(C#N)c32)nc2c1COC[C@@]21CCOC1)[C@@H]1CCCN1C [II-9a] | 7.08
CO[C@H]1C[C@@H](n2c(=O)n(C)c3c(O[C@@H](C)[C@@H]4CCCN4C)nc(-c4onc5c4CCC[C@@]54CCCc5sc(N)c(C#N)c54)nc32)C1 [I-31] | 7.28
CO[C@@H]1C[C@@H]([C@H](C)Oc2nc(-c3noc4c3CCC[C@@]43CCCc4sc(N)c(C#N)c43)nc3c2COC[C@]32CCOC2)N(C)C1 [II-11] | 9.00
C[C@H](Oc1nc(-c2onc3c2CCC[C@@]32CCCc3sc(N)c(C#N)c32)nc2c1n(C)c(=O)n2C12COC(C1)C2)[C@@H]1CCCN1C [I-15] | 7.80
C[C@H](Oc1nc(-c2noc3c2CCC[C@@]32CCCc3sc(N)c(C#N)c32)nc2c1CCO[C@]21CCOC1)[C@@H]1CCCN1C [II-9b] | 8.30
CCn1c(=O)n([C@@H]2CCCOC2)c2nc(-c3onc4c3CCC[C@@]43CCCc4sc(N)c(C#N)c43)nc(O[C@@H](C)[C@@H]3CCCN3C)c21 [I-30] | 7.96

Tested on: not listed separately
Assay: Metabolic (microsomal) stability assay, human liver microsomes (HLM)
Assay type: in vitro ADME
Conditions: 1 μM test compound, predicted clearance as percent of liver blood flow
Description: The metabolic degradation of the test compound is assayed at 37° C. with pooled liver microsomes (mouse (MLM), rat (RLM) or human (HLM)). The final incubation volume of 48 μL per time point contains TRIS buffer (pH 7.5; 0.1 M), magnesium chloride (6.5 mM), microsomal protein (0.5 mg/mL for mouse/rat, 1 mg/mL for human specimens) and the test compound at a final concentration of 1 μM. Following a short preincubation period at 37° C., the reactions are initiated by addition of 12 μL beta-nicotinamide adenine dinucleotide phosphate, reduced form (NADPH, 10 mM) and terminated by transferring an aliquot into solvent after different time points (0, 5, 15, 30, 60 min). Additionally, the NADPH-independent degradation is monitored in incubations without NADPH, terminated at the last time point by addition of acetonitrile. The quenched incubations are pelleted by centrifugation (4,000 rpm, 15 min). An aliquot of the supernatant is assayed by LC-MS/MS to quantify the concentration of parent compound in the individual samples.
In vitro intrinsic clearance (CLint,in vitro) is calculated from the time course of the disappearance of the test drug during the microsomal incubation. Each plot is fitted to the first-order elimination rate constant as C(t)=C0*exp(−ke*t), where C(t) and C0 are the concentration of unchanged test drug at incubation time t and that at preincubation and ke is the disappearance rate constant of the unchanged drug. Subsequently, CLint, in vitro (μL min^−1·amount protein) values are converted to predicted CLint,in vivo (mL min^−1·kg^−1) from incubation parameters according to the equation CLint, in vivo=CLint, in vitro×(incubation volume (mL)/amount protein (mg))×(amount protein (mg)/g liver tissue)×(liver weight/body wt.).
For better across species comparison the predicted clearance is expressed as percent of the liver blood flow [% QH] (mL min^−1·kg^−1) in the individual species. In general, high stability (corresponding to low % QH) of the compounds across species is desired.

SMILES | HLM QH
C[C@H](Oc1nc(-c2noc3c2CCC[C@@]32CCCc3sc(N)c(C#N)c32)nc2c1cnn2[C@@H]1CCOC1)[C@@H]1CCCN1C [II-4] | 40%
COCCn1c(=O)n(C)c2c(O[C@@H](C)[C@@H]3CCCN3C)nc(-c3onc4c3CCC[C@@]43CCCc4sc(N)c(C#N)c43)nc21 [I-7] | <24%
C[C@H](Oc1nc(-c2noc3c2CCC[C@@]32CCCc3sc(N)c(C#N)c32)nc2c1COC[C@@]21CCOC1)[C@@H]1CCCN1C [II-9a] | 29%
CO[C@H]1C[C@@H](n2c(=O)n(C)c3c(O[C@@H](C)[C@@H]4CCCN4C)nc(-c4onc5c4CCC[C@@]54CCCc5sc(N)c(C#N)c54)nc32)C1 [I-31] | <24%
CO[C@@H]1C[C@@H]([C@H](C)Oc2nc(-c3noc4c3CCC[C@@]43CCCc4sc(N)c(C#N)c43)nc3c2COC[C@]32CCOC2)N(C)C1 [II-11] | 64%
C[C@H](Oc1nc(-c2onc3c2CCC[C@@]32CCCc3sc(N)c(C#N)c32)nc2c1n(C)c(=O)n2C12COC(C1)C2)[C@@H]1CCCN1C [I-15] | <24%
C[C@H](Oc1nc(-c2noc3c2CCC[C@@]32CCCc3sc(N)c(C#N)c32)nc2c1CCO[C@]21CCOC1)[C@@H]1CCCN1C [II-9b] | 33%
CCn1c(=O)n([C@@H]2CCCOC2)c2nc(-c3onc4c3CCC[C@@]43CCCc4sc(N)c(C#N)c43)nc(O[C@@H](C)[C@@H]3CCCN3C)c21 [I-30] | 25%

Tested on: Ba/F3 cells KRAS G12V
Assay: Ba/F3 proliferation assay (KRAS G12V)
Assay type: cell-based
Conditions: Mus musculus, BaF3, 72 h, AlamarBlue viability
Description: as §3, §4

SMILES | pIC50
C[C@H](Oc1nc(-c2noc3c2CCC[C@@]32CCCc3sc(N)c(C#N)c32)nc2c1cnn2[C@@H]1CCOC1)[C@@H]1CCCN1C [II-4] | 8.30
COCCn1c(=O)n(C)c2c(O[C@@H](C)[C@@H]3CCCN3C)nc(-c3onc4c3CCC[C@@]43CCCc4sc(N)c(C#N)c43)nc21 [I-7] | 7.34
C[C@H](Oc1nc(-c2noc3c2CCC[C@@]32CCCc3sc(N)c(C#N)c32)nc2c1COC[C@@]21CCOC1)[C@@H]1CCCN1C [II-9a] | 7.55
CO[C@H]1C[C@@H](n2c(=O)n(C)c3c(O[C@@H](C)[C@@H]4CCCN4C)nc(-c4onc5c4CCC[C@@]54CCCc5sc(N)c(C#N)c54)nc32)C1 [I-31] | 7.64
CO[C@@H]1C[C@@H]([C@H](C)Oc2nc(-c3noc4c3CCC[C@@]43CCCc4sc(N)c(C#N)c43)nc3c2COC[C@]32CCOC2)N(C)C1 [II-11] | 9.00
C[C@H](Oc1nc(-c2onc3c2CCC[C@@]32CCCc3sc(N)c(C#N)c32)nc2c1n(C)c(=O)n2C12COC(C1)C2)[C@@H]1CCCN1C [I-15] | 7.96
C[C@H](Oc1nc(-c2noc3c2CCC[C@@]32CCCc3sc(N)c(C#N)c32)nc2c1CCO[C@]21CCOC1)[C@@H]1CCCN1C [II-9b] | 8.70
CCn1c(=O)n([C@@H]2CCCOC2)c2nc(-c3onc4c3CCC[C@@]43CCCc4sc(N)c(C#N)c43)nc(O[C@@H](C)[C@@H]3CCCN3C)c21 [I-30] | 8.30
